# Tested on: hepatocytes
# Assay: Seq-Well scRNA-Seq of hepatocytes after APAP overdose (signature scores, DEG vs untreated)
# Format: in vivo, mouse
# [1] = time point A6 vs untreated (UT)
compound,measurement,setting,value
"CC(=O)Nc1ccc(O)cc1 [APAP, acetaminophen]",avg_logFC Mrpl42,[1],−0.2845
same,avg_logFC Mrps18c,[1],−0.3663
same,avg_logFC Msn,[1],0.2602
same,avg_logFC Mup2,[1],−0.5045
same,avg_logFC Mvd,[1],−0.2704
same,avg_logFC Myo1b,[1],0.2624
same,avg_logFC Naprt1,[1],−0.3381
same,avg_logFC Ndufa1,[1],−0.3645
same,avg_logFC Ndufb3,[1],−0.3272
same,avg_logFC Ndufb8,[1],−0.3481
same,avg_logFC Ndufc1,[1],−0.3444
same,avg_logFC Ndufs4,[1],−0.3132
same,avg_logFC Ndufs8,[1],−0.3614
same,avg_logFC Ndufv3,[1],−0.3971
same,avg_logFC Nedd8,[1],−0.3564
same,avg_logFC Nedd41,[1],0.2812
same,avg_logFC Net1,[1],0.3479
same,avg_logFC Nop10,[1],−0.2919
same,avg_logFC Nrp1,[1],0.3608
same,avg_logFC Nucks1,[1],0.3558
same,avg_logFC Nudt4,[1],0.2542
same,avg_logFC Oaz1,[1],−0.3472
same,avg_logFC Otc,[1],−0.299
same,avg_logFC Pacsin2,[1],0.3708
same,avg_logFC Palld,[1],0.3414
same,avg_logFC Pank1,[1],−0.3527
same,avg_logFC Paqr9,[1],−0.3323
same,avg_logFC Pet100,[1],−0.28
same,avg_logFC Phc2,[1],0.312
same,avg_logFC Pi4k2a,[1],0.3536
same,avg_logFC Pik3c2a,[1],0.3249
same,avg_logFC Plk3,[1],0.4166
same,avg_logFC Pnkd,[1],−0.2928
same,avg_logFC Ppp1r12a,[1],0.3563
same,avg_logFC Prdx5,[1],−0.2821
same,avg_logFC Proc,[1],−0.2707
same,avg_logFC Psmb1,[1],−0.3585
same,avg_logFC Psmb3,[1],−0.3303
same,avg_logFC Psmb6,[1],−0.3194
same,avg_logFC Ptp4a1,[1],0.2627
same,avg_logFC Ptpn2,[1],0.2734
same,avg_logFC Ptpn12,[1],0.3342
same,avg_logFC Purb,[1],0.3525
same,avg_logFC Pvrl2,[1],−0.2613
same,avg_logFC Pxk,[1],0.2819
same,avg_logFC Pxmp2,[1],−0.3671
same,avg_logFC Rab6a,[1],0.3234
same,avg_logFC Rbm25,[1],0.4215
same,avg_logFC Rexo2,[1],−0.3263
same,avg_logFC Rlim,[1],0.3102
same,avg_logFC Rnaseh2c,[1],−0.3257
same,avg_logFC Romo1,[1],−0.3359
same,avg_logFC Rps3,[1],−0.3493
same,avg_logFC Rps9,[1],−0.3718
same,avg_logFC Rps10,[1],−0.3369
same,avg_logFC Rps21,[1],−0.3645
same,avg_logFC Rsl1d1,[1],0.3461
same,avg_logFC S100a1,[1],−0.3743
same,avg_logFC Sar1b,[1],−0.3079
same,avg_logFC Sbno1,[1],0.3671
same,avg_logFC Sc4mol,[1],−0.3262
same,avg_logFC Scaf11,[1],0.3598
same,avg_logFC Scd1,[1],−0.4661
same,avg_logFC Sdhb,[1],−0.2896
same,avg_logFC Sdhd,[1],−0.3353
same,avg_logFC Sdr9c7,[1],−0.26
same,avg_logFC Sdsl,[1],0.2593
same,avg_logFC Sec61b,[1],−0.2903
same,avg_logFC Selk,[1],−0.3383
same,avg_logFC Sf1,[1],0.3023
same,avg_logFC Sfpq,[1],0.394
same,avg_logFC Sgk1,[1],0.2843
same,avg_logFC Shb,[1],0.3152
same,avg_logFC Sigmar1,[1],−0.3055
same,avg_logFC Sirt3,[1],−0.346
same,avg_logFC Slc2a2,[1],−0.3123
same,avg_logFC Slc10a1,[1],−0.3258
same,avg_logFC Slco1a1,[1],−0.3628
same,avg_logFC Slco1a4,[1],0.3137
same,avg_logFC Slirp,[1],−0.3085
same,avg_logFC Smap2,[1],0.3489
same,avg_logFC Smdt1,[1],−0.3673
same,avg_logFC Smg1,[1],0.335
same,avg_logFC Srsf11,[1],0.4012
same,avg_logFC Stbd1,[1],−0.2732
same,avg_logFC Stk17b,[1],0.2911
same,avg_logFC Stom,[1],0.3232
same,avg_logFC Sult1d1,[1],−0.3165
same,avg_logFC Tbl1xr1,[1],0.3075
same,avg_logFC Tcea3,[1],−0.355
same,avg_logFC Tceb2,[1],−0.3207
same,avg_logFC Tgm2,[1],0.3993
same,avg_logFC Tgoln1,[1],0.2657
same,avg_logFC Timm8b,[1],−0.3936
same,avg_logFC Tjp1,[1],0.2862
same,avg_logFC Tm7sf2,[1],−0.3164
same,avg_logFC Tmbim6,[1],−0.2711
same,avg_logFC Tmem37,[1],−0.2822
same,avg_logFC Tmem86b,[1],−0.2582
same,avg_logFC Tmem106b,[1],0.2802
same,avg_logFC Tmem147,[1],−0.2838
same,avg_logFC Tmem150a,[1],−0.2535
same,avg_logFC Tmem160,[1],−0.339
same,avg_logFC Tmem242,[1],−0.2725
same,avg_logFC Tmem243,[1],−0.3791
same,avg_logFC Tmem258,[1],−0.2769
same,avg_logFC Tnks2,[1],0.3176
same,avg_logFC Tob1,[1],−0.3387
same,avg_logFC Tpr,[1],0.4409
same,avg_logFC Tsc22d1,[1],−0.2997
same,avg_logFC Tspo,[1],−0.3157
same,avg_logFC Txn1,[1],−0.3091
same,avg_logFC Ubl5,[1],−0.3033
same,avg_logFC Ucp2,[1],0.2612
same,avg_logFC Ugt2a3,[1],−0.3075
same,avg_logFC Uqcc2,[1],−0.3269
same,avg_logFC Wdr43,[1],0.3438
same,avg_logFC Yap1,[1],0.3281
same,avg_logFC Zfp683,[1],−0.4217
same,avg_logFC Zyx,[1],0.2983
same,avg_logFC mmu-mir-6236,[1],0.5206
same,Adck3 pct.1,time point A24,0.68
same,Arhgap5 pct.1,time point A24,0.566
same,Arhgef12 pct.1,time point A24,0.541
same,Arl5a pct.1,time point A24,0.459
same,Atp1a1 pct.1,time point A24,0.532
same,Atp5e pct.1,time point A24,0.688
same,Atp5f1 pct.1,time point A24,0.8
same,Atp6v1f pct.1,time point A24,0.244
same,Atp11c pct.1,time point A24,0.649
same,Atp13a3 pct.1,time point A24,0.546
same,Azin1 pct.1,time point A24,0.46
same,Bnip3 pct.1,time point A24,0.39
same,Brd2 pct.1,time point A24,0.512
same,Bzw1 pct.1,time point A24,0.487
same,Cald1 pct.1,time point A24,0.79
same,Caprin1 pct.1,time point A24,0.567
same,Ces3b pct.1,time point A24,0.683
same,Copb2 pct.1,time point A24,0.595
same,Copz1 pct.1,time point A24,0.501
same,Cox7b pct.1,time point A24,0.768
same,Cpne3 pct.1,time point A24,0.456
same,Ctnnb1 pct.1,time point A24,0.566
same,Cyp4a14 pct.1,time point A24,0.245
same,Cyp27a1 pct.1,time point A24,0.759
same,Ddost pct.1,time point A24,0.493
same,Dennd5b pct.1,time point A24,0.476
same,Deptor pct.1,time point A24,0.583
same,Dnajb9 pct.1,time point A24,0.373
same,Dnajb11 pct.1,time point A24,0.557
same,Eci1 pct.1,time point A24,0.581
same,Edem1 pct.1,time point A24,0.566
same,Ehhadh pct.1,time point A24,0.552
same,Eif4b pct.1,time point A24,0.542
same,Ell2 pct.1,time point A24,0.552
same,Eprs pct.1,time point A24,0.587
same,Erbb2ip pct.1,time point A24,0.482
same,Erp44 pct.1,time point A24,0.469
same,Esd pct.1,time point A24,0.67
same,Fam120a pct.1,time point A24,0.51
same,Fasn pct.1,time point A24,0.449
same,Fcgrt pct.1,time point A24,0.461
same,Gch1 pct.1,time point A24,0.502
same,Gm23935 pct.1,time point A24,0.919
same,Gm24245 pct.1,time point A24,0.369
same,Gpam pct.1,time point A24,0.329
same,Grlf1 pct.1,time point A24,0.413
same,Gstm3 pct.1,time point A24,0.293
same,H6pd pct.1,time point A24,0.675
same,Id3 pct.1,time point A24,0.278
same,Ide pct.1,time point A24,0.604
same,Iqgap2 pct.1,time point A24,0.748
same,Ireb2 pct.1,time point A24,0.469
same,Jak1 pct.1,time point A24,0.482
same,Lasp1 pct.1,time point A24,0.361
same,Lgr4 pct.1,time point A24,0.399
same,Lpin2 pct.1,time point A24,0.7
same,Macf1 pct.1,time point A24,0.349
same,Magt1 pct.1,time point A24,0.52
same,Man2a1 pct.1,time point A24,0.675
same,Mbnl1 pct.1,time point A24,0.428
same,Met pct.1,time point A24,0.434
same,Mt1 pct.1,time point A24,0.41
same,Mtss1 pct.1,time point A24,0.581
same,Nadk2 pct.1,time point A24,0.539
same,Narf pct.1,time point A24,0.411
same,Ndufa6 pct.1,time point A24,0.692
same,Ndufb6 pct.1,time point A24,0.636
same,Ndufc2 pct.1,time point A24,0.465
same,Nop10 pct.1,time point A24,0.227
same,Nr1i3 pct.1,time point A24,0.237
same,Nrp1 pct.1,time point A24,0.426
same,Osbp19 pct.1,time point A24,0.569
same,Osbpl1a pct.1,time point A24,0.592
same,Ostc pct.1,time point A24,0.514
same,Pik3c2a pct.1,time point A24,0.36
same,Plin5 pct.1,time point A24,0.181
same,Prdx4 pct.1,time point A24,0.47
same,Prdx5 pct.1,time point A24,0.731
same,Prkaa2 pct.1,time point A24,0.451
same,Prox1 pct.1,time point A24,0.477
same,Proz pct.1,time point A24,0.622

# Source: patent US20230053540A1, “TREATMENT OF LIVER INJURY” (Massachusetts Institute of Technology, priority 2019, published 2023)
